Experimental findings from ChEMBL document CHEMBL4002605, “Synthesis, identification and in vitro biological evaluation of some novel quinoline incorporated 1,3-thiazinan-4-one derivatives” (Bioorg Med Chem Lett, 2017) are described below.

≈ marks a conversion by molar mass, not a printed value.

One experiment relates to Plasmodium falciparum. As to the kind of experiment: Antimalarial activity against Plasmodium falciparum. In kind it is functional.
Another experiment has as its system Escherichia coli. As to the kind of experiment: Antibacterial activity against Escherichia coli MTCC 443 by broth microdilution assay method. In kind it is functional.
A further experiment deals with Clostridium tetani. As to the kind of experiment: Antibacterial activity against Clostridium tetani MTCC 449 by broth microdilution assay method. In kind it is functional.
Another experiment has as its system Vibrio cholerae. As to the kind of experiment: Antibacterial activity against Vibrio cholerae MTCC 3906 by broth microdilution assay method. In kind it is functional.
The test system of a further experiment is Streptococcus pneumoniae. As to the kind of experiment: Antibacterial activity against Streptococcus pneumoniae MTCC 1936 by broth microdilution assay method. In kind it is functional.
For experiment [1], the system named is Mycobacterium tuberculosis. As to the kind of experiment: Antitubercular activity against Mycobacterium tuberculosis H37Rv at 6 ug/mL. In kind it is functional.
In a further experiment the test system is Bacillus subtilis. As to the kind of experiment: Antibacterial activity against Bacillus subtilis MTCC 441 by broth microdilution assay method. In kind it is functional.
The test system of another experiment is Salmonella typhi. As to the kind of experiment: Antibacterial activity against Salmonella typhi MTCC 98 by broth microdilution assay method. In kind it is functional, Salmonella enterica subsp. enterica serovar Typhi. As to conditions: Salmonella enterica.

Compound `O=C1CCSC(c2cccc(F)c2)N1CCCNc1ccnc2cc(Cl)ccc12` (stereo not given) gave an IC50 in the experiment on Plasmodium falciparum of 1.12 µg/mL (≈ 2.6 µM). The MIC in the experiment with Escherichia coli worked out at 250 µg/mL (≈ 581 µM); with Clostridium tetani, 250 µg/mL (≈ 581 µM); in the experiment with Vibrio cholerae it was 250 µg/mL (≈ 581 µM); against Streptococcus pneumoniae, 125 µg/mL (≈ 291 µM); in the experiment on Bacillus subtilis it was 125 µg/mL (≈ 291 µM); with Salmonella typhi, 125 µg/mL (≈ 291 µM). Besides, the inhibition at 6 µg/mL in experiment [1] was found to be 52%.

Compound `O=C1CCSC(c2ccc(Br)cc2)N1CCCNc1ccnc2cc(Cl)ccc12` (stereo not given) showed an IC50 with Plasmodium falciparum of 0.056 µg/mL (≈ 0.114 µM). Moreover, the MIC against Escherichia coli was 125 µg/mL (≈ 255 µM); in the experiment on Clostridium tetani, 100 µg/mL (≈ 204 µM); against Vibrio cholerae, 100 µg/mL (≈ 204 µM); in the experiment with Streptococcus pneumoniae, 62.5 µg/mL (≈ 127 µM); against Bacillus subtilis, 62.5 µg/mL (≈ 127 µM); in the experiment on Salmonella typhi it was 62.5 µg/mL (≈ 127 µM). The compound also yielded an inhibition at 6 µg/mL in experiment [1] of 87%.

The compound `O=C1CCSC(c2cccc(Cl)c2)N1CCCCNc1ccnc2cc(Cl)ccc12` (stereo not given) had an IC50 in the experiment with Plasmodium falciparum of 1.93 µg/mL (≈ 4.19 µM). In addition, the MIC against Escherichia coli was 250 µg/mL (≈ 543 µM); in the experiment with Clostridium tetani it was 250 µg/mL (≈ 543 µM); against Vibrio cholerae, 125 µg/mL (≈ 271 µM); in the experiment on Streptococcus pneumoniae, 250 µg/mL (≈ 543 µM); in the experiment on Bacillus subtilis, 250 µg/mL (≈ 543 µM); against Salmonella typhi it was 125 µg/mL (≈ 271 µM). Also, 6 µg/mL produced 49% inhibition in experiment [1].

Turning to `O=C1CCSC(c2ccccc2)N1CCCNc1ccnc2cc(Cl)ccc12` (stereo not given), the IC50 in the experiment on Plasmodium falciparum came to 3.5 µg/mL (≈ 8.5 µM). Moreover, the MIC in the experiment on Escherichia coli, in the experiment on Clostridium tetani, in the experiment with Vibrio cholerae, against Streptococcus pneumoniae, in the experiment on Bacillus subtilis and against Salmonella typhi was 500 µg/mL (≈ 1210 µM) throughout. Further, the inhibition at 6 µg/mL in experiment [1] is 47%.

`O=C1CCSC(c2ccc(F)cc2)N1CCCNc1ccnc2cc(Cl)ccc12` (stereo not given) displayed an IC50 in the experiment with Plasmodium falciparum of 0.089 µg/mL (≈ 0.207 µM). For the same compound, the MIC against Escherichia coli is 62.5 µg/mL (≈ 145 µM); against Clostridium tetani, 100 µg/mL (≈ 233 µM); in the experiment with Vibrio cholerae, 100 µg/mL (≈ 233 µM); with Streptococcus pneumoniae it was 31.2 µg/mL (≈ 72.7 µM); with Bacillus subtilis, 62.5 µg/mL (≈ 145 µM); against Salmonella typhi, 125 µg/mL (≈ 291 µM). This compound came in with an inhibition at 6 µg/mL in experiment [1] of 78%.

Compound `O=C1CCSC(c2ccc(F)cc2)N1CCCCNc1ccnc2cc(Cl)ccc12` (stereo not given) gave an IC50 with Plasmodium falciparum of 0.092 µg/mL (≈ 0.207 µM). The MIC came out at 125 µg/mL (≈ 282 µM) against Escherichia coli; 125 µg/mL (≈ 282 µM) against Clostridium tetani; 62.5 µg/mL (≈ 141 µM) against Vibrio cholerae; 100 µg/mL (≈ 225 µM) against Streptococcus pneumoniae; 100 µg/mL (≈ 225 µM) against Bacillus subtilis; 62.5 µg/mL (≈ 141 µM) against Salmonella typhi. Moreover, the inhibition at 6 µg/mL in experiment [1] was 65%.

`Cc1ccc(C2SCCC(=O)N2CCCCNc2ccnc3cc(Cl)ccc23)cc1` (stereo not given) displayed an IC50 with Plasmodium falciparum of 2.33 µg/mL (≈ 5.3 µM). Also, the MIC in the experiment on Escherichia coli was found to be 500 µg/mL (≈ 1140 µM); with Clostridium tetani, 250 µg/mL (≈ 568 µM); in the experiment on Vibrio cholerae, 250 µg/mL (≈ 568 µM); in the experiment with Streptococcus pneumoniae it was 500 µg/mL (≈ 1140 µM); in the experiment on Bacillus subtilis it was 250 µg/mL (≈ 568 µM); against Salmonella typhi, 500 µg/mL (≈ 1140 µM). In experiment [1], this compound showed an inhibition at 6 µg/mL of 40%.

In the experiment on Plasmodium falciparum, `O=C1CCSC(c2ccc(O)cc2)N1CCCCNc1ccnc2cc(Cl)ccc12` (stereo not given) came in with an IC50 of 2.64 µg/mL (≈ 5.97 µM). In addition, the MIC was found to be 125 µg/mL (≈ 283 µM) against Escherichia coli; 500 µg/mL (≈ 1130 µM) in the experiment on Clostridium tetani; 250 µg/mL (≈ 566 µM) against Vibrio cholerae; 250 µg/mL (≈ 566 µM) in the experiment on Streptococcus pneumoniae; 250 µg/mL (≈ 566 µM) against Bacillus subtilis; 250 µg/mL (≈ 566 µM) with Salmonella typhi. This compound returned an inhibition at 6 µg/mL in experiment [1] of 38%.

`Cc1ccc(C2SCCC(=O)N2CCCNc2ccnc3cc(Cl)ccc23)cc1` (stereo not given) had an IC50 in the experiment with Plasmodium falciparum of 2.2 µg/mL (≈ 5.16 µM). Moreover, the minimal inhibitory concentration (MIC) with Escherichia coli turned out to be 250 µg/mL (≈ 587 µM); against Clostridium tetani it was 500 µg/mL (≈ 1170 µM); in the experiment on Vibrio cholerae, 500 µg/mL (≈ 1170 µM); against Streptococcus pneumoniae, 250 µg/mL (≈ 587 µM); with Bacillus subtilis, 125 µg/mL (≈ 293 µM); in the experiment with Salmonella typhi, 500 µg/mL (≈ 1170 µM). For the same compound, testing at 6 µg/mL in experiment [1] gave an inhibition of 41%.

Take `CC1(C)S[C@@H]2[C@H](NC(=O)[C@H](N)c3ccccc3)C(=O)N2[C@H]1C(=O)O` [AMPICILLIN]: the MIC was determined as 100 µg/mL (≈ 286 µM) with Escherichia coli; 250 µg/mL (≈ 715 µM) with Clostridium tetani; 100 µg/mL (≈ 286 µM) in the experiment with Vibrio cholerae; 100 µg/mL (≈ 286 µM) against Streptococcus pneumoniae; 250 µg/mL (≈ 715 µM) with Bacillus subtilis; 100 µg/mL (≈ 286 µM) in the experiment on Salmonella typhi.

On to `O=C(O)c1cn(C2CC2)c2cc(N3CCNCC3)c(F)cc2c1=O` [CIPROFLOXACIN], for which the MIC with Escherichia coli, with Vibrio cholerae, against Streptococcus pneumoniae and against Salmonella typhi was 25 µg/mL (≈ 75.4 µM) throughout.

In the case of `CCn1cc(C(=O)O)c(=O)c2cc(F)c(N3CCNCC3)cc21` [NORFLOXACIN], the MIC in the experiment with Escherichia coli is 10 µg/mL (≈ 31.3 µM); in the experiment with Clostridium tetani it was 50 µg/mL (≈ 157 µM); in the experiment with Vibrio cholerae, 10 µg/mL (≈ 31.3 µM); against Streptococcus pneumoniae, 10 µg/mL (≈ 31.3 µM); in the experiment with Bacillus subtilis it was 100 µg/mL (≈ 313 µM); against Salmonella typhi, 10 µg/mL (≈ 31.3 µM).

`C=C[C@H]1CN2CC[C@H]1C[C@H]2[C@H](O)c1ccnc2ccc(OC)cc12` [QUININE]: in the experiment with Plasmodium falciparum, the midpoint of inhibition, the IC50, lay at 0.271 µg/mL (≈ 0.835 µM).

In the case of `CO[C@H]1/C=C/O[C@@]2(C)Oc3c(C)c(O)c4c(O)c(c(/C=N/N5CCN(C)CC5)c(O)c4c3C2=O)NC(=O)/C(C)=C\C=C\[C@H](C)[C@H](O)[C@@H](C)[C@@H](O)[C@@H](C)[C@H](OC(C)=O)[C@@H]1C` [RIFAMPIN], the inhibition at 6 µg/mL in experiment [1] amounted to 98%.
